Experimental data as given in patent US6969730B2, “Amines as histamine-3 receptor ligands and their therapeutic applications” (Abbott Laboratories, priority 2001, dated 2005).

Molecular target: T1, histamine-3 receptors (H3 receptor) (Rattus norvegicus, UniProt Q9QYN8)
T1 construct: from tissue; host or cells: male Sprague-Dawley rat brain cortex membranes
Assay: (3H)-N-α-methylhistamine binding to rat cortical membranes (histamine-3 receptor ligands)
Details: male Sprague-Dawley rat brain cortical membranes; (3H)-N-α-methylhistamine ~0.6 nM; 30 minutes at 25° C.; Cheng-Prusoff
Procedure: Briefly, male Sprague-Dawley rat brain cortices were homogenized (1 g tissue/10 mL buffer) in 50 mM Tris-HCl/5 mM EDTA containing protease inhibitor cocktail (Calbiochem) using a polytron set at 20,500 rpm. Homogenates were centrifuged for 20 minutes at 40,000×g. The supernatant was decanted, and pellets were weighed. The pellet was resuspended by polytron homogenization in 40 mL 50 mM Tris-HCl/5 mM EDTA with protease inhibitors and centrifuged for 20 minutes at 40,000×g. […] Rat cortical membranes (12 mg wet weight/tube) were incubated with (^3H)-N-α-methylhistamine (˜0.6 nM) with or without H3 receptor antagonists in a total incubation volume of 0.5 mL of 50 mM Tris-HCl/5 mM EDTA (pH 7.7). Test compounds were dissolved in DSMO to provide a 20 mM solution, serially diluted and then added to the incubation mixture prior to initiating the incubation assay by addition of the membranes. Thioperamide (3 μM) was used to determine nonspecific binding. Binding incubations were conducted for 30 minutes at 25° C. and terminated by addition of 2 mL of ice cold 50 mM Tris-HCl (pH 7.7) and filtration through 0.3% polyethylenimine-soaked Unifilter plates (Packard). These filters were washed 4 additional times with 2 mL of ice-cold 50 mM Tris-HCl and dried for 1 hour. Radioactivity was determined using liquid scintillation counting techniques. Results were analyzed by Hill transformation and Ki values were determined using the Cheng-Prusoff equation.

T1 sequence (Q9QYN8 whole entry): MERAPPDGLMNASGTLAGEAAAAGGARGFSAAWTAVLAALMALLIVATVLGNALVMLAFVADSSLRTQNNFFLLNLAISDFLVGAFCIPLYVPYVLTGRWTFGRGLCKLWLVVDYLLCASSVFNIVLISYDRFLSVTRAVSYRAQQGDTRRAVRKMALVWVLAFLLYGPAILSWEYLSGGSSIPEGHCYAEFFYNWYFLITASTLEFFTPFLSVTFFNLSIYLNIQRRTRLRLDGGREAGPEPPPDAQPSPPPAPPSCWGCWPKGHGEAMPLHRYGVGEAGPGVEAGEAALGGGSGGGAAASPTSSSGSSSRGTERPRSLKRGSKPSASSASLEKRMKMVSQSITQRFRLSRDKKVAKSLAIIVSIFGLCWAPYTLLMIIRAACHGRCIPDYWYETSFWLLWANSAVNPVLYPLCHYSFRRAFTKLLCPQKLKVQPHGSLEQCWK

| Structure (SMILES) | Ki |
| --- | --- |
| C[C@@H]1CCCN1CCc1cc2cc(-c3ccc(C#N)c(F)c3)ccc2o1 [Example 111, 2-fluoro-4-(2-{2-[(2R)-2-methyl-1-pyrrolidinyl]ethyl}-1-benzofuran-5-yl)benzonitrile] | 9 nM |
| C[C@@H]1CCCN1CCc1cc2cc(-c3cccc(C#N)c3)ccc2o1 [Example 112, 3-(2-{2-[(2R)-2-methyl-1-pyrrolidinyl]ethyl}-1-benzofuran-5-yl)benzonitrile] | 3 nM |
| Cc1ccccc1-c1ccc2oc(CCN3CCC[C@H]3C)cc2c1 [Example 115, (2R)-2-methyl-1-{2-[5-(2-methylphenyl)-1-benzofuran-2-yl]ethyl}pyrrolidine] | 33 nM |
| Cc1cccc(-c2ccc3oc(CCN4CCC[C@H]4C)cc3c2)c1 [Example 116, (2R)-2-methyl-1-{2-[5-(3-methylphenyl)-1-benzofuran-2-yl]ethyl}pyrrolidine] | 30 nM |
| COC(=O)c1ccc(-c2ccc3oc(CCN4CCC[C@H]4C)cc3c2)cc1 [Example 118, methyl 4-(2-{2-[(2R)-2-methyl-1-pyrrolidinyl]ethyl}-1-benzofuran-5-yl)benzoate] | 42 nM |
| COc1ccccc1-c1ccc2oc(CCN3CCC[C@H]3C)cc2c1 [Example 119, (2R)-1-{2-[5-(2-methoxyphenyl)-1-benzofuran-2-yl]ethyl}-2-methylpyrrolidine] | 66 nM |
| C[C@@H]1CCCN1CCc1cc2cc(-c3cccc(F)c3)ccc2o1 [Example 122, (2R)-1-{2-[5-(3-fluorophenyl)-1-benzofuran-2-yl]ethyl}-2-methylpyrrolidine] | 17 nM |
| C[C@@H]1CCCN1CCc1cc2cc(-c3cccc(Cl)c3)ccc2o1 [Example 124, (2R)-1-{2-[5-(3-chlorophenyl)-1-benzofuran-2-yl]ethyl}-2-methylpyrrolidine] | 34 nM |
| C[C@@H]1CCCN1CCc1cc2cc(-c3ccc(OC(F)(F)F)cc3)ccc2o1 [Example 129, (2R)-2-methyl-1-(2-{5-[4-(trifluoromethoxy)phenyl]-1-benzofuran-2-yl}ethyl)pyrrolidine] | 150 nM |
| Cc1ccc(-c2ccc3oc(CCN4CCC[C@H]4C)cc3c2)cc1C [Example 130, (2R)-1-{2-[5-(3,4-dimethylphenyl)-1-benzofuran-2-yl]ethyl}-2-methylpyrrolidine] | 60 nM |
| C[C@@H]1CCCN1CCc1cc2cc(C=Cc3ccc(F)cc3)ccc2o1 [Example 135, (2R)-1-(2-{5-[2-(4-fluorophenyl)vinyl]-1-benzofuran-2-yl}ethyl)-2-methylpyrrolidine] | 31 nM |
| C[C@@H]1CCCN1CCc1cc2cc(-c3cccc(C(C)(C)O)c3)ccc2o1 [Example 138, 2-[3-(2-{2-[(2R)-2-methyl-1-pyrrolidinyl]ethyl}-1-benzofuran-5-yl)phenyl]-2-propanol] | 1.2 nM |
| CC(=NO)c1cccc(-c2ccc3oc(CCN4CCC[C@H]4C)cc3c2)c1 [Example 139, 1-[3-(2-{2-[(2R)-2-methyl-1-pyrrolidinyl]ethyl}-1-benzofuran-5-yl)phenyl]ethanone oxime] | 3.1 nM |
| CON=C(C)c1cccc(-c2ccc3oc(CCN4CCC[C@H]4C)cc3c2)c1 [Example 140, 1-[3-(2-{2-[(2R)-2-methyl-1-pyrrolidinyl]ethyl}-1-benzofuran-5-yl)phenyl]ethanone O-methyloxime] | 21 nM |
| CCON=C(C)c1cccc(-c2ccc3oc(CCN4CCC[C@H]4C)cc3c2)c1 [Example 141, 1-[3-(2-{2-[(2R)-2-methyl-1-pyrrolidinyl]ethyl}-1-benzofuran-5-yl)phenyl]ethanone O-ethyloxime] | 44 nM |
| CC(=NOC(C)(C)C)c1cccc(-c2ccc3oc(CCN4CCC[C@H]4C)cc3c2)c1 [Example 142, 1-[3-(2-{2-[(2R)-2-methyl-1-pyrrolidinyl]ethyl}-1-benzofuran-5-yl)phenyl]ethanone O-(tert-butyl)oxime] | 29 nM |
| C[C@@H]1CCCN1CCc1cc2cc(-c3cccc(C(=O)c4cccs4)c3)ccc2o1 [Example 150, [3-(2-{2-[(2R)-2-methyl-1-pyrrolidinyl]ethyl}-1-benzofuran-5-yl)phenyl](2-thienyl)methanone] | 3.6 nM |
| C[C@@H]1CCCN1CCc1cc2cc(-c3cccc(C(=O)c4cccc(F)c4)c3)ccc2o1 [Example 151, (3-fluorophenyl)[3-(2-{2-[(2R)-2-methyl-1-pyrrolidinyl]ethyl}-1-benzofuran-5-yl)phenyl]methanone] | 53 nM |
| C[C@@H]1CCCN1CCc1cc2cc(-c3cccc(CO)c3)ccc2o1 [Example 152, [3-(2-{2-[(2R)-2-methyl-1-pyrrolidinyl]ethyl}-1-benzofuran-5-yl)phenyl]methanol] | 2.6 nM |

Further molecules by falling Ki, results first:

| Ki | Structure (SMILES) |
| --- | --- |
| 120 nM | C[C@@H]1CCCN1CCc1cc2cc(-c3ccc(C(F)(F)F)cc3)ccc2o1 [Example 127, (2R)-2-methyl-1-(2-{5-[4-(trifluoromethyl)phenyl]-1-benzofuran-2-yl}ethyl)pyrrolidine] |
| 110 nM | Cc1ccc(-c2ccc3oc(CCN4CCC[C@H]4C)cc3c2)cc1 [Example 117, (2R)-2-methyl-1-{2-[5-(4-methylphenyl)-1-benzofuran-2-yl]ethyl}pyrrolidine] |
| 110 nM | C[C@@H]1CCCN1CCc1cc2cc(-c3cccc(OC(F)(F)F)c3)ccc2o1 [Example 128, (2R)-2-methyl-1-(2-{5-[3-(trifluoromethoxy)phenyl]-1-benzofuran-2-yl}ethyl)pyrrolidine] |
| 97 nM | C[C@@H]1CCCN1CCc1cc2cc(-c3ccc(Cl)c(Cl)c3)ccc2o1 [Example 114, (2R)-1-{2-[5-(3,4-dichlorophenyl)-1-benzofuran-2-yl]ethyl}-2-methylpyrrolidine] |
| 81 nM | C[C@@H]1CCCN1CCc1cc2cc(-c3cccc(C(F)(F)F)c3)ccc2o1 [Example 126, (2R)-2-methyl-1-(2-{5-[3-(trifluoromethyl)phenyl]-1-benzofuran-2-yl}ethyl)pyrrolidine] |
| 77 nM | C[C@@H]1CCCN1CCc1cc2cc(-c3ccc(F)cc3)ccc2o1 [Example 113, (2R)-1-{2-[5-(4-fluorophenyl)-1-benzofuran-2-yl]ethyl}-2-methylpyrrolidine] |
| 63 nM | CC1CCCN1CCc1cc2cc(-c3ccc(Cl)cc3)ccc2o1 (centres unmarked) [Example 125, 1-{2-[5-(4-chlorophenyl)-benzofuran-2-yl]-ethyl}-2-methylpyrrolidine] |
| 32 nM | C[C@@H]1CCCN1CCc1cc2cc(Cc3ccccc3)ccc2o1 [Example 153, (2R)-1-[2-(5-benzyl-1-benzofuran-2-yl)ethyl]-2-methylpyrrolidine] |
| 23 nM | COc1cccc(-c2ccc3oc(CCN4CCC[C@H]4C)cc3c2)c1 [Example 120, (2R)-1-{2-[5-(3-methoxyphenyl)-1-benzofuran-2-yl]ethyl}-2-methylpyrrolidine] |
| 22 nM | C[C@@H]1CCCN1CCc1cc2cc(-c3cc(Cl)cc(Cl)c3)ccc2o1 [Example 131, (2R)-1-{2-[5-(3,5-dichlorophenyl)-1-benzofuran-2-yl]ethyl}-2-methylpyrrolidine] |
| 19 nM | Cc1cc(C)cc(-c2ccc3oc(CCN4CCC[C@H]4C)cc3c2)c1 [Example 132, (2R)-1-{2-[5-(3,5-dimethylphenyl)-1-benzofuran-2-yl]ethyl}-2-methylpyrrolidine] |
| 19 nM | CC(C)CC(=O)c1cccc(-c2ccc3oc(CCN4CCC[C@H]4C)cc3c2)c1 [Example 148, 3-methyl-1-[3-(2-{2-[(2R)-2-methyl-1-pyrrolidinyl]ethyl}-1-benzofuran-5-yl)phenyl]-1-butanone] |
| 16 nM | C[C@@H]1CCCN1CCc1cc2cc(-c3ccccc3Cl)ccc2o1 [Example 123, (2R)-1-{2-[5-(2-chlorophenyl)-1-benzofuran-2-yl]ethyl}-2-methylpyrrolidine] |
| 6.4 nM | C[C@@H]1CCCN1CCc1cc2cc(-c3ccc(CO)cc3)ccc2o1 [Example 133, [4-(2-{2-[(2R)-2-methyl-1-pyrrolidinyl]ethyl}-1-benzofuran-5-yl)phenyl]methanol] |
| 3.3 nM | C[C@@H]1CCCN1CCc1cc2cc(-c3cccc(C=O)c3)ccc2o1 [Example 149, 3-(2-{2-[(2R)-2-methyl-1-pyrrolidinyl]ethyl}-1-benzofuran-5-yl)benzaldehyde] |
| 3.2 nM | C[C@@H]1CCCN1CCc1cc2cc(-c3cccnc3)ccc2o1 [Example 134, 3-(2-{2-[(2R)-2-methyl-1-pyrrolidinyl]ethyl}-1-benzofuran-5-yl)pyridine] |
| 2.8 nM | CC(O)c1cccc(-c2ccc3oc(CCN4CCC[C@H]4C)cc3c2)c1 (stereo partly drawn) [Example 137, 1-[3-(2-{2-[(2R)-2-methyl-1-pyrrolidinyl]ethyl}-1-benzofuran-5-yl)phenyl]ethanol] |
| 2 nM | C[C@@H]1CCCN1CCc1cc2cc(-n3ccnc3)ccc2o1 [Example 154, 1-(2-{2-[(2R)-2-methyl-1-pyrrolidinyl]ethyl}-1-benzofuran-5-yl)-1H-imidazole] |
| 0.4 nM | CC(=O)c1cccc(-c2ccc3oc(CCN4CCC[C@H]4C)cc3c2)c1 [Example 136, 1-[3-(2-{2-[(2R)-2-methyl-1-pyrrolidinyl]ethyl}-1-benzofuran-5-yl)phenyl]ethanone] |
